Measurements as given in US20130178454A1, “COMBINATION OF TESTOSTERONE AND ORNITHINE DECARBOXYLASE (ODC) INHIBITORS” (priority 2011, published 2013).
Entries after “also recorded” stand apart in the source; their conditions may differ.

Experiments:
castrated C57BL/6 mice = experiment: Prostate and levator ani muscle weights in castrated mice treated with testosterone or testosterone plus DFMO (FIG. 9); format: in vivo
Text: Shown is a histogram showing prostate weights and levator ani muscle weights in vehicle-treated intact C57BL/6 mice, and castrated mice treated with vehicle, testosterone, or testosterone plus an ODC inhibitor DFMO.

ornithine decarboxylase = molecular target: T1, ornithine decarboxylase (Homo sapiens, UniProt P11926); conditions: cited from earlier work
T1 sequence (P11926 1-461): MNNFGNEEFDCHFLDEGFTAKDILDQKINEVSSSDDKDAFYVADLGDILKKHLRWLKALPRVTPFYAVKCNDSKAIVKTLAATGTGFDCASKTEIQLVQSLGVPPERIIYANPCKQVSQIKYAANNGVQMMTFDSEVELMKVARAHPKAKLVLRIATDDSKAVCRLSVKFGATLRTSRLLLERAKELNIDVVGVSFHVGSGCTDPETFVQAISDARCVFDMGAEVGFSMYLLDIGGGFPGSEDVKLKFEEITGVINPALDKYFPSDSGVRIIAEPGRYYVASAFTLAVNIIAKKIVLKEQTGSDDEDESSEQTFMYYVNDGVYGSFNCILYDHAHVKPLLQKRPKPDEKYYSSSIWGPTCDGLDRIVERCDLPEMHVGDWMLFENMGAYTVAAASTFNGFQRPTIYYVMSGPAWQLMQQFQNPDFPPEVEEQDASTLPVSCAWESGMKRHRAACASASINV

[1] = tested on: carcinogen-induced cancer development; conditions: variety of rodent models; cited from earlier work
[2] = tested on: PCNA expression in the prostate epithelial cells; experiment: PCNA expression in prostate epithelial cells (FIG. 7C); format: cell-based; conditions: follistatin 1 ng/ml and 5 ng/ml, DHT 10 nM
[3] = tested on: PSA expression in the prostate epithelial cells; experiment: PSA expression in prostate epithelial cells (FIG. 7B); format: cell-based; conditions: follistatin 1 ng/ml and 5 ng/ml, R1881 1 nM
castrated (CX) mice = experiment: Histologic sections of the prostate in castrated mice (FIG. 7A); format: in vivo
[4] = tested on: ornithine decarboxylase (ODC) and polyamine pathway in the prostate; experiment: Microarrays of prostate RNA from castrated mice treated with follistatin or testosterone (FIG. 8); format: in vivo; conditions: microarray
Text: FIG. 8A is a schematic of microarray experiments to identify testosterone-selective signalling pathways in the prostate which are not activated by follistatin (Fst), and identify genes which are follistatin sensitive and those which are testosterone sensitive. Adult male mice were either sham-castrated or castrated under ketamine-xylazine anesthesia and treated with vehicle (sham), follistatin or testosterone. RNA was extracted from the prostate and levator ani muscle and subjected to microarrays. […] Shown in the box is the region of highly differentially expressed genes between the follistatin (Fst/CX) and testosterone (Tes/CX) treated mice.
Using microarrays, the inventors elucidated the signaling pathways that are differentially activated in the skeletal muscle and prostate by each of testosterone and follistatin, and assessed the pathways that are specifically activated in the prostate by testosterone, but were not follistatin (FIG. 8A-8B). The inventors determined that testosterone and follstatin both activate common signaling pathways that mediate their anabolic effects on the skeletal muscle, and specifically assessed if testosterone activates one or more unique signaling pathways in the prostate that are not activated by follistatin.

C3H 10T1/2 cells = conditions: 100 nm testosterone, 0.5 μg/ml anti-Fst antibody, rFst 0.2 μg/ml; cited from earlier work
[5] = tested on: Wnt target genes in 3T3-L1 cells; conditions: 3T3-L1 cells incubated with 100 nM testosterone; cited from earlier work
[6] = tested on: older men with low or low normal testosterone levels; conditions: testosterone versus placebo; cited from earlier work
[7] = cited from earlier work
C57BL/6 mice = experiment: Systemic follistatin treatment of mice: fat mass, lean mass, muscle and bone mass (FIG. 6); format: in vivo
LNCaP cells = experiment: Proliferation of androgen-sensitive LNCaP cells in vitro; format: cell-based
[8] = mice in vivo, given with testosterone

Molecule: NCCCC(N)(C(=O)O)C(F)F (racemic) [DFMO, (RS)-2,5-diamino-2-(difluoromethyl)pentanoic acid]
- effect of the ODC inhibitor on testosterone's anabolic effect on the muscle (castrated C57BL/6 mice; [8]): did not block testosterone's effect on the muscle; also recorded: maintaining muscle anabolic effects of testosterone
- effect of the ODC inhibitor on testosterone-induced prostate growth (castrated C57BL/6 mice; [8]): blocks testosterone's effects on the prostate; also recorded: suppresses testosterone-induced prostate growth in vivo
- inhibition of ornithine decarboxylase (ornithine decarboxylase): potent inhibitor of ornithine decarboxylase
- carcinogen-induced cancer development [1]: inhibit carcinogen-induced cancer development

Molecule: C[C@]12CCC(=O)C[C@@H]1CC[C@@H]1[C@@H]2CC[C@]2(C)[C@@H](O)CC[C@@H]12 [DHT, Dihydrotestosterone]
- PCNA expression [2]: upregulated PCNA expression

Molecule: C[C@]1(O)CC[C@H]2[C@@H]3CCC4=CC(=O)CCC4=C3C=C[C@@]21C [R1881]
- PSA expression [3]: stimulates PSA expression

Molecule: C[C@]12CC[C@H]3[C@@H](CCC4=CC(=O)CC[C@@]43C)[C@@H]1CC[C@@H]2O [testosterone, 17-β-hydroxyandrost-4-en-3-one]
- levator ani muscle mass (levator ani muscle weights) (castrated C57BL/6 mice; castrated C57BL/6 mice): restored prostate as well as levator ani muscle mass
- prostate mass (prostate weights) (castrated C57BL/6 mice; castrated C57BL/6 mice): restored prostate as well as levator ani muscle mass
- prostate growth and prostate glands (castrated (CX) mice): restored prostate mass and growth of prostate glands
- polyamine biosynthetic pathway / ODC gene expression in the prostate [4]: activated by testosterone in the prostate
- polyamine biosynthetic pathway / ODC gene expression in the prostate ([4]; listed as Testosterone): upregulate several biosynthetic pathways including the polyamine biosynthetic pathway
- myogenic differentiation of mesenchymal multipotent cells (C3H 10T1/2 cells): promotes myogenic differentiation; also recorded: stimulate myogenic differentiation
- Fst, CD44 and Lef1 gene expression [5]: upregulation of Fst (follastin) and CD44 and Lef1 gene expression
- fat mass [6]: reduces fat mass
- lean body mass, muscle strength and bone mineral density [6]: improves lean body mass (LBM), a measure of muscle mass, muscle strength and bone mineral density (BMD)
- testosterone circulating unbound to plasma proteins [7]: Less than 2.5%

B1: follistatin: an endogenous protein that increases muscle mass; recombinant Fst protein (protein, UniProt P19883 30-344, looked up)
Follistatin: GNCWLRQAKNGRCQVLYKTELSKEECCSTGRLSTSWTEEDVNDNTLFKWMIFNGGAPNCIPCKETCENVDCGPGKKCRMNKKNKPRCVCAPDCSNITWKGPVCGLDGKTYRNECALLKARCKEQPELEVQYQGRCKKTCRDVFCPGSSTCVVDQTNNAYCVTCNRICPEPASSEQYLCGNDGVTYSSACHLRKATCLLGRSIGLAYEGKCIKAKSCEDIQCTGGKKCLWDFKVGRGRCSLCDELCPDSKSDEPVCASDNATYASECAMKEAACSSGVLLEVKHSGSCNSISEDTEEEEEDEDQDYSFPISSILEW
- fat mass (C57BL/6 mice; castrated mice): reduces fat mass
- muscle and bone mass (C57BL/6 mice; castrated mice): increases muscle and bone mass
- lean body mass, measured by NMR (C57BL/6 mice; mice, 13 weeks systemic administration of 0, 10, 30 and 100 μg recombinant follistatin): increased dose-dependently
- fat mass, expressed as a percent of body weight (C57BL/6 mice; mice, 13 weeks systemic administration of 10, 30 and 100 μg follistatin): fat mass is decreased
- prostate growth and prostate glands (castrated (CX) mice): does not stimulate prostate growth; also recorded: did not stimulate prostate growth or glands
- PSA expression [3]: nor does it up regulate PSA expression; also recorded: does not stimulate PSA expression
- proliferation of androgen-sensitive LNCaP cells (LNCaP cells): does not up stimulate the proliferation
- polyamine biosynthetic pathway / ODC gene expression in the prostate [4]: not upregulated
- myogenic differentiation of mesenchymal multipotent cells (C3H 10T1/2 cells): stimulate myogenic differentiation
